{
  "source": "patent US20080119567A1",
  "about": "“Methods of use of herbal compositions” (priority 2003, published 2008)",
  "key": {"[1]": {"assay": "Pharmacokinetics study of intravenous injection with and without geranium oil", "assay_type": "in vivo, mice"}, "H. pylori (ATCC 43504)": {"test_system": "H. pylori (ATCC 43504)", "assay": "Minimum inhibitory concentration by agar dilution method", "assay_type": "cell-based, Helicobacter pylori", "design": "key: scored positive (+) for inhibition/eradication of colonies growth; negative (−) for no effect upon growth colonies", "conditions": "0.3 μg/ml; 37° C., 72 hours, n=2", "description": "Minimum inhibitory concentration is determined by the agar dilution method. 2 mg of test substance, composition of geranium oil and extracts from S. flavescenes prepared for injections (MIC-1), is dissolved and serially diluted in solvent (distilled water) to desired stock concentrations. For each concentration tested, a 10 μl aliquot is added to a 48-well plate containing 0.99 ml of Columbia agar base supplemented with 7% defibrinated rabbit blood. The inoculum of H. pylori (ATCC 43504) is prepared by suspending in brain heart infustion broth to a density of 5×10^8 CFU/ml. A multiprong-incubating device is used to place approximately 5×10^5 CFU/ml per spot onto the containing agent media. […] The plates are incubated at 37° C. for 72 hours in the microaerophilic condition (mixed gas N2 85%, CO2 10%, and O2 5%) and then visually examined and scored positive (+) for inhibition/eradication of colonies growth or negative (−) for no effect upon growth colonies. […] Each concentration is evaluated in duplicate.\nMinimum inhibitory concentration is determined by the agar dilution method. […] The plates are incubated at 37° C. for 72 hours in the microaerophilic condition (mixed gas N2 85%, CO2 10%, and O2 5%) and then visually examined and scored positive (+) for inhibition/eradication of colonies growth or negative (−) for no effect upon growth colonies. […] Each concentration is evaluated in duplicate. […]"}, "[2]": {"test_system": "Helicobacter pylori (clinical isolate strain)", "assay": "Gastric ulceration after Helicobacter pylori inoculation in mice (Example 11)", "assay_type": "in vivo, ICR derived mice", "conditions": "24.5 ml/kg × 2 × 7 PO (text: 24.5 mg/kg)", "description": "Seven groups of 5 male ICR derived mice weighing 24±2 grams were fasted for 18 hours before the intragastric inoculation of Helicobacter pylori (clinical isolate strain) in suspension at 1.5×10^9 CFU/0.4 ml/mouse. […] Subsequently, test substances and vehicle were each administered orally twice daily (9:00 A.M. and 16:00 P.M.) for […]. omeprazole 1 mg/kg and clarithromycin 10 mg/kg in combination was used as a positive control agent and was administered orally to test animals once daily (9:00 A.M.) for 7 consecutive days. Seven days after infection, on day eight, all animals with overnight fasting were sacrificed and the stomachs were dissected along the greater curvature. Gastric ulceration was scored at four levels according to the degree of hemorrhage and the severity of ulcerative lesions: 0=normal appearance, 1=mild red spots, 2=moderate red spots and/or hemorrhage spots, 3=marked hemorrhage spots. Reduction of concurrent vehicle control score values by 50 percent or more (≧50%) is considered significant. Test substances and vehicle control (2% TWEEN 80® in 0.9% NaCl solution) were each administered orally to test animals twice daily for 7 consecutive days. The Helicobacter pylori (1.5×10^9 CFU/0.4 ml/mouse) inoculation was applied one hour before the first dosing on day 1. […]"}},
  "note": "Several values for one entry are separate records, joined by “and”; a condition that tells them apart may be missing. Equal entries are not always repeated.",
  "data": [
    {"molecule": "O=C1CCC[C@@H]2[C@H]3CCC[N+]4([O-])CCC[C@@H](CN12)[C@@H]34", "note": "(some centres unmarked) [oxymatrine]", "values": [
      {"measurement": "effect of addition of geranium oil on absorption and metabolism (HPLC peak areas over time)", "setting": "[1]; mouse, in vivo, iv", "result": "increase the absorption and metabolism"}
    ]},
    {"molecule": "gentamicin", "values": [
      {"measurement": "Result (inhibition/eradication of colonies growth)", "setting": "H. pylori (ATCC 43504)", "result": "+"}
    ]},
    {"molecule": "O=C1CCC[C@@H]2[C@H]3CCCN4CCC[C@@H](CN12)[C@@H]34", "note": "[matrine]", "values": [
      {"measurement": "effect of addition of geranium oil on absorption and metabolism (HPLC peak areas over time)", "setting": "[1]; intravenous injection, mice, with geranium oil vs alone", "result": "increase the absorption and metabolism"}
    ]},
    {"molecule": "CC(C)=CCCC(C)CCO", "note": "(centres unmarked) [MIC-20, citronellol]", "values": [
      {"measurement": "Ulceration Score Total", "setting": "[2]; N=5", "result": 3},
      {"measurement": "Ulceration Score Individual", "setting": "[2]; mice 1-5, score 0-3", "result": "0 (3×) and 2 and 1"}
    ]}
  ]
}
